melting point: 143 to 147 °C
SMILES: N=C(NCCCCN1CCC(CCCC(N)=O)CC1)NC(=O)c1nc(Cl)c(N)nc1N [Example 1, 4-(1-{4-[N′-(3,5-diamino-6-chloropyrazine-2-carbonyl)guanidino]-butyl}piperidin-4-yl)butyramide]
